The values that follow come from patent US6911443B2 (Bayer Aktiengesellschaft, priority 2000, dated 2005).

Each structure is given as a SMILES string.

The target of one assay is T1, human Syk (GST-Syk) (Homo sapiens, UniProt P43405).
T1 construct: A cDNA fragment encoding human Syk openreading frame was cloned; made in house; host or cells: Sf21 insect cells (baculovirus, transfer vector pAcG2T)
The assay is described as follows: Syk tyrosine kinase inhibitory assay. In kind it is biochemical. To be noted: Activity grade (IC50 class), in vitro; compounds as yielded by solid phase synthesis, purity about 40 to 90%. The source says:
[Syk Tyrosine Kinase Inhibitory Assay]
(1) Preparation of Syk Protein
A cDNA fragment encoding human Syk openreading frame was cloned from total RNA of human Burkitt's lymphoma B cell lines, Raji (American Type Culture Collection), with the use of RT-PCR method. The cDNA fragment was inserted into pAcG2T (Pharmingen, San Diego, Calif.) to construct a baculovirus transfer vector. Then the vector, together with the linearized baculovirus (BaculoGold™, Pharmingen), was used to transfect Sf21 cells (Invitrogen, San Diego, Calif.).
Generated recombinant baculovirus was cloned and amplified in Sf21 cells. Sf21 cells were infected with this amplified high titer virus to produce a chimeric protein of Syk kinase fused by glutathione-S-transferase (GST).
The resulting GST-Syk was purified with the use of glutathione column (Amersham Pharmacia Biotech AB, Uppsala, Sweden) according to the manufacturer's instruction.
(2) Synthesize of a Peptide
Next, a peptide fragment of 30 residues including two tyrosine residues, […], was synthesized by a peptide synthesizer. The N-terminal of the fragment was then biotinylated to obtain biotinylated activation loop peptide (AL).
(3) The Measurement of Syk Tyrosine Kinase Activity
All reagents were diluted with the Syk kinase assay buffer (50 mM Tris-HCl (pH 8.0), 10 mM MgCl2, 0.1 mM Na3VO4, 0.1% BSA, 1 mM DTT). First, a mixture (35 μl) including […] of GST-Syk and 0.5 μg of AL was put in each well in 96-well plates. Then 5 μl of a test compound in the presence of 2.5% dimethylsulfoxide (DMSO) was added to each well. To this mixture was added […] (10 μl) to initiate the kinase reaction. The final reaction mixture (50 μl) consists of 0.65 nM GST-Syk, 3 μM AL, 30 μM ATP, a test compound, 0.25% DMSO, and a Syk kinase assay buffer.
The mixture was incubated for 1 hr at room temperature, and the reaction was terminated by the addition of 120 μl of termination buffer (50 mM Tris-HCl (pH 8.0), 10 mMEDTA, 500 mM NaCl, 0.1% BSA). The mixture was transferred to streptavidin-coated plates and incubated for 30 min at room temperature to combine biotin-AL to the plates. After washing the plates with Tris-buffered saline (TBS) (50 mM Tris-HCl (pH 8.0), 138 mM NaCl, 2.7 mM KCl) containing 0.05% Tween-20 for 3 times, 100 μl of antibody solution consisting of 50 mM Tris-HCl (pH 8.0), 138 mM NaCl, 2.7 mM KCl, 1% BSA, 60 ng/ml anti-phosphotyrosine monoclonal antibody, 4G10 (Upstate Biotechnology), which is labeled with europium by Amersham Pharmacia's kit in advance, was added and incubated at room temperature for 60 min. After washing, 100 μl of enhancement solution (Amersham pharmacia Biotech) was added and then time-resolved fluorescence was measured by multi-label counter ARVO (Wallac Oy, Finland) at 340 nm for excitation and 615 nm for emission with 400 msec of delay and 400 msec of window.
With `CCSc1nc(-c2ccc(OC(=O)N(C)C)c(OC)c2)cc2nccn12` [Example 3-12], the IC50 lay within 2000 to 10000 nM.

Staying with this assay, now noted: Table 11; read-out: Activity grade.
With `COc1ccc(-c2cc3nccn3c(Nc3ccc4[nH]ncc4c3)n2)cc1OC` [Example 12-2], the IC50 is < 500 nM.
On to `COc1ccc(Nc2nc(-c3ccc(NCCCN4CCOCC4)c(OC)c3)cc3nccn23)cc1` [Example 12-38], for which the IC50 was < 500 nM.
In the case of `COc1ccc(-c2cc3nccn3c(Nc3cccc(C(F)(F)F)c3)n2)cc1OC` [Example 12-13], the IC50 fell in the range of 500 to 2000 nM.
The same measure, in the same setting: with `COCCCN(C)c1ccc(-c2cc3nccn3c(Nc3ccc(OC)cc3)n2)cc1OC` [Example 12-56] the figure was < 500 nM.

Still in this assay, the particulars now being: Table 13; read-out: Activity grade.
Consider `CCCCCSc1nc(-c2ccc(OC)c(OC)c2)cc2nccn12` [Example 14-26], for which the IC50 lay within 500 to 2000 nM.
Same read-out and setting: the figure for `COc1ccc(-c2cc3nccn3c(SCCN(C)C)n2)cc1OC` [Example 14-27] is < 500 nM.

Staying with this assay, now noted: Table 15; read-out: Activity grade.
With `COc1ccc(-c2cc3nccn3c(Sc3nnnn3C)n2)cc1OC` [Example 16-1], the IC50 is < 500 nM.

Still in this assay, the particulars now being: Table 16; read-out: Activity grade.
Consider `CCSc1nc(-c2ccc(OC)c(NCCCCN(C)C)c2)cc2nccn12` [Example 17-1], for which the IC50 fell in the range of 500 to 2000 nM.
Same read-out and setting: the figure for `CCSc1nc(-c2ccc(NCc3ccccc3)c(OC)c2)cc2nccn12` [Example 17-9] is 2000 to 10000 nM; for `CCSc1nc(-c2ccc(OC)c(NC)c2)cc2nccn12` [Example 17-2] it is 500 to 2000 nM.

The same assay, now with this note: Table 17; IC50 classes; read-out: Activity grade.
With `CCSc1nc(-c2ccc(OC)c(OC)c2)cc2nc(C(N)=O)cn12` [Example 28], the IC50 was 500 to 2000 nM.
Still for that read-out and setting: the figure for `COc1ccc(-c2cc3nccn3c(SCC(=O)O)n2)cc1OC` [Example 26] is 2000 to 10000 nM; for `COc1ccc(-c2cc3nccn3c(SCCN)n2)cc1OC` [Example 25] it is < 500 nM; for `COc1ccc(-c2cc3nccn3c(Sc3ccc(CCC(N)=O)cc3)n2)cc1OC` [Example 20] it is < 500 nM.
On the same count and under the same terms, with `CCN(CC)CCNc1ccc(C(N)=O)c(Nc2nc(-c3ccc(OC)c(OC)c3)cc3nccn23)c1` [Example 12] the figure was < 500 nM.

The same assay, now with this note: in vitro; compounds as yielded by solid phase synthesis, purity about 40 to 90%.
Regarding `CCSc1nc(-c2ccc(S(=O)(=O)N3CCC(C(=O)O)CC3)c(OC)c2)cc2nccn12` [Example 2-10], the “Activity grade (IC50 class)” value is reported as “C-D”.
The same measure, in the same setting: with `CCSc1nc(-c2ccc(S(=O)(=O)NCCN(C)C)c(OC)c2)cc2nccn12` [Example 2-8] the entry was “C-D”.

The same assay, now with this note: in vitro; compounds as yielded by solid phase synthesis, purity about 40 to 90%; read-out: Activity grade (IC50 class).
Regarding `COc1ccc(-c2cc3ncnn3c(Nc3ccc(/C=C/C(=O)O)cc3)n2)cc1OC` [Example 9-19], the IC50 was < 500 nM.
The same measure, in the same setting: the figure for `COc1ccc(-c2cc3nccn3c(N3CC[C@H](N(C)C)C3)n2)cc1OC` [Example 9-78] is 2000 to 10000 nM.
Consider `COc1ccc(-c2cc3ncnn3c(Nc3ccc(CCC(=O)O)cc3)n2)cc1OC` [Example 9-20], for which the IC50 is < 500 nM.
In the case of `COc1ccc(-c2cc3nccn3c(N3CCCC3)n2)cc1OC` [Example 9-55], the IC50 lay in the range of 500 to 2000 nM.
The same measure, in the same setting: the figure for `COc1ccc(-c2cc3nccn3c(N(C)c3cccc(Cl)c3)n2)cc1OC` [Example 11-50] is < 500 nM; for `COc1ccc(-c2cc3nccn3c(Nc3ccccc3C(=O)NN)n2)cc1OC` [Example 11-13] it is 2000 to 10000 nM; for `COc1ccc(-c2cc3nccn3c(Nc3ccc(NCCN4CCOCC4)cc3)n2)cc1OC` [Example 11-82] it is < 500 nM.
As to `CCSc1nc(-c2ccc(SC)cc2)cc2nccn12` [Example 1-12], the IC50 lay in the range of 500 to 2000 nM.
On the same count and under the same terms, the figure for `COc1ccc(-c2cc3ncnn3c(Nc3ncccc3O)n2)cc1OC` [Example 9-17] is 2000 to 10000 nM.
Still for that read-out and setting: the figure for `COc1ccc(-c2cc3nccn3c(Nc3ccc(CCCC(=O)O)cc3)n2)cc1OC` [Example 11-21] is < 500 nM; for `COc1ccc(-c2cc3nccn3c(Nc3cccc4c3C(=O)NC4=O)n2)cc1OC` [Example 11-3] it is < 500 nM.
Still for that read-out and setting: with `COc1ccc(-c2cc3nccn3c(Nc3ccc(/C=C/C(=O)OC(C)(C)C)cc3C(N)=O)n2)cc1OC` [Example 11-14] the figure was < 500 nM; with `COc1ccc(-c2cc3nccn3c(Nc3ccc(Br)cc3Cl)n2)cc1OC` [Example 11-88], < 500 nM.
As for `COc1ccc(-c2cc3nccn3c(SCc3ccccc3Cl)n2)cc1OC` [Example 9-27], the IC50 was < 500 nM.
Turning to `COc1ccc(-c2cc3nccn3c(N3CCCCC3)n2)cc1OC` [Example 9-54], the IC50 fell in the range of 500 to 2000 nM.
On the same count and under the same terms, with `COc1ccc(-c2cc3nccn3c(N3CCC(c4ccc(O)cc4)CC3)n2)cc1OC` [Example 9-60] the figure was 500 to 2000 nM; with `CCSc1nc(-c2ccc(OC)c(OCc3ccccc3)c2)cc2nccn12` [Example 4-1], 500 to 2000 nM; with `COc1ccc(-c2cc3nccn3c(Nc3ccc(CCC4=NC(C)(C)CO4)cc3)n2)cc1OC` [Example 9-22], < 500 nM.
In the case of `COc1ccc(-c2cc3nccn3c(N(C)c3ccc(Cl)cc3)n2)cc1OC` [Example 11-45], the IC50 was 500 to 2000 nM.
The same measure, in the same setting: the figure for `COc1ccc(-c2cc3nccn3c(Nc3ccc(O)cc3)n2)cc1OC` [Example 11-29] is < 500 nM; for `COc1ccc(-c2cc3nccn3c(Nc3ccc(CCC(=O)O)cc3C(N)=O)n2)cc1OC` [Example 11-104] it is < 500 nM; for `CCCCNS(=O)(=O)c1cccc(Nc2nc(-c3ccc(OC)c(OC)c3)cc3nccn23)c1` [Example 11-73] it is < 500 nM.
For `COC(=O)CCSc1nc(-c2ccc(OC)c(OC)c2)cc2nccn12` [Example 9-90], the IC50 is < 500 nM.
Still for that read-out and setting: with `CCCNc1nc(-c2ccc(OC)c(OC)c2)cc2nccn12` [Example 9-87] the figure was < 500 nM; with `COc1ccc(-c2cc3nccn3c(Sc3cc(OC)c(OC)c(OC)c3)n2)cc1OC` [Example 13-8], < 500 nM.
The same measure, in the same setting: with `COc1ccc(-c2cc3nccn3c(N3CCSCC3)n2)cc1OC` [Example 9-75] the figure was 500 to 2000 nM; with `COc1ccc(-c2cc3nccn3c(Nc3ccc(CCC(=O)O)cc3)n2)cc1OC` [Example 11-24], < 500 nM; with `COc1cccc(Nc2nc(-c3ccc(OC)c(OC)c3)cc3nccn23)c1` [Example 11-58], < 500 nM.
Still for that read-out and setting: with `COc1ccc(-c2cc3nccn3c(Nc3ccc(NCCN(C)C)cc3)n2)cc1OC` [Example 11-74] the figure was < 500 nM.
For `COc1ccc(-c2cc3nccn3c(SCC(C)C(=O)O)n2)cc1OC` (stereo not drawn) [Example 9-91], the IC50 fell in the range of 500 to 2000 nM.
In the case of `COc1ccc(-c2cc3nccn3c(Nc3ccc(C(N)=O)c(N)c3)n2)cc1OC` [Example 11-129], the IC50 is < 500 nM.
On the same count and under the same terms, with `COc1ccc(-c2cc3nccn3c(Nc3cccc(C(=N)N)c3)n2)cc1OC` [Example 11-66] the figure was < 500 nM; with `COc1ccc(-c2cc3nccn3c(N(C)CCN(C)C)n2)cc1OC` [Example 9-76], 2000 to 10000 nM.
Still for that read-out and setting: the figure for `CCSc1nc(-c2ccc(OC)c(OCC3CCCCO3)c2)cc2nccn12` (stereo not drawn) [Example 4-5] is 500 to 2000 nM.
Still for that read-out and setting: the figure for `CCN(CC)CCNc1ccc(C(N)=O)c(Nc2nc(-c3ccc(OC)c(OC)c3)cc3nccn23)c1` [Example 12] is < 500 nM; for `COc1ccc(-c2cc3nccn3c(Nc3cccc(CO)c3)n2)cc1OC` [Example 11-37] it is < 500 nM; for `COc1ccc(-c2cc3nccn3c(NCCN)n2)cc1OC` [Example 9-81] it is 500 to 2000 nM.
Take `CCSc1nc(-c2ccc(OC(=O)OC)c(OC)c2)cc2nccn12` [Example 3-11]: the IC50 is < 500 nM.
The same measure, in the same setting: with `CCSc1nc(-c2ccc(OC)c(OS(C)(=O)=O)c2)cc2nccn12` [Example 4-9] the figure was 500 to 2000 nM.
For the compound `COc1ccc(Nc2nc(-c3ccc(OC)c(OC)c3)cc3nccn23)cc1OC` [Example 11-84], the IC50 is < 500 nM.
On the same count and under the same terms, with `COc1ccc(-c2cc3nccn3c(Nc3ccccc3)n2)cc1OC` [Example 11-16] the figure was < 500 nM; with `COc1ccc(-c2cc3nccn3c(Nc3cccc([N+](=O)[O-])c3)n2)cc1OC` [Example 11-70], < 500 nM.
